Two molecules from patent publication US20100297023A1, “Lipid” (priority 2006, published 2010) can be followed below.

Some results are limits rather than exact numbers.

For data set [1], the system named is siRNA. Description: Agarose gel retardation assay of siRNA with lipid. The format is physicochemical. To be noted: for optimal lipid:siRNA ratio to completely retard the siRNA: precast 0.8% agarose gel, anti-apoB siRNA. The procedure: Gel retardation assay. In order to define the optimal ratio between lipid:siRNA to achieve full complexation of the nucleic acid which is manifested by a complete retardation in an electrical field, different ratios of lipid:siRNA (0-3) were produced and aliquots run on precast 0.8% agarose gels (Invitrogen). For this purpose, 1 μg siRNA were pipetted into 0.5 mL eppendorf tubes complemented with distilled water to 10 μL. The appropriate amount of lipid from a stock in water (2 mg/mL) were added to generate lipid:siRNA ratios between 0 and 3. All samples were vortexed and the whole reaction mixture pipetted to the individual wells of 0.8% pre-cast agarose gels and run at 50V/10 mA for 20 mins (FIG. 2). […] Therefore, for all future in vivo experiments, a ratio of 3:1 (lipid:siRNA) was chosen.

Data set [2] concerns mouse apoB gene. Description: Down-regulation of the apoB gene in vivo (liver, real time PCR). The arrangement: species or system Balb/C mice. The settings on record: tail vein, liver at 48 h. The procedure: Lipid-siRNA AB nanoparticles with CDAN and DODAG were prepared at final lipid:siRNA ratios of 2.5 and 3, respectively. These values correspond to the optimal ratios to completely retard the siRNA on a precast 0.8% agarose gel (Invitrogen). All lipid-siRNA AB nanoparticle complexes were made in water at a final concentration of 0.5 mg siRNA/mL in water.
Experimental The appropriate amounts of CDAN and DODAG from stock solutions in water (5 mg/mL and 2 mg/mL, respectively) were pipetted into a 25 mL falcon plastic tube. The appropriate amount of anti-apoB siRNA from a stock solution of 10 mg/mL was added slowly to the respective lipid solution while vortexing the falcon tube. The appropriate amount of a solution of trehalose (100%, w/v in water) was added and the sample vortexed heavily for 10 s. The samples were then sonicated in a water bath for 15 mins to generate homogenous emulsions. 15 mins prior to the injection of the samples into Balb/C mice, 1.5M NaCl was added so that each lipid-siRNA AB nanoparticle preparation contained a final concentration of 150 mM NaCl. 200 μL aliquots were injected via tail vein and the animals left for 48 h before sacrificing. The liver was extracted and immediately put into a solution of RNAlater (Ambion). The total RNA was extracted using RNAeasy columns (Qiagen), and quantified both by UV absorption (λ=260 nm) and by densiometry of the bands on a 2% agarose formaldehyde gel.
1 μg of the total RNA was reversed transcribed to generate cDNA in a total volume of 20 μL. After completion of the reaction, the total reaction volume was supplemented to 40 μL with water. From this solution, 1 μL was used to do real time PCR (Sybr green) using the forward primer 5′-[…] (SEQ ID NO: 26) and the reverse primer 5′-[…] (SEQ ID NO:27) on an Applied Biosystem 7700 machine. The data were analysed using the ABI prism software (FIG. 4).
(In general: Quantitative PCR measures a nucleic acid by following its amplification.)

The subject of data set [3] is CyPB mRNA in HeLa cells. In words: Down-regulation of the cyclophilin B gene in vitro (real time PCR). The format is cell-based, human. The settings on record: lipid:siRNA ratios lower than 13:1 (w/w). The procedure: Experimental 4 μg (3.74 μL) siRNA were complemented with 770 μL OptiMEM and 52 μg (26 μL) DODAG (2 mg/mL, water) added under vortexing. The DODAG-siRNA AB nanoparticles were allowed to stand for 5 mins at room temperature. 200 μL of the DODAG-siRNA AB nanoparticle solution were pipetted to two wells of a six well plate containing HeLa cells (250,000), and the cells incubated at 37° C. for 3 h under CO2 regime. The cells were then washed with warm PBS and incubated for another 48 h before lysing and extracting the total RNA using RNAeasy extraction columns (Qiagen). The same protocol was employed with CDAN. For DOGS, the protocol as recommended by the manufacturer was applied. The quality of the total RNA was verified on a 2% agarose formaldehyde gel, and the RNA quantified by UV (260 nm). 1 μg RNA of each sample was reverse transcribed to generate cDNA which was real time PCRed using standard protocols with Sybr green. The CyPB levels were standardized to β-actin levels for each sample (FIG. 3).

On to `CC(C)CCC[C@@H](C)[C@H]1CC[C@H]2[C@@H]3CC=C4C[C@@H](OC(=O)NCCNCCCNCCN)CC[C@]4(C)[C@H]3CC[C@]12C` [CDAN, N^1-cholesteryloxycarbonyl-3,7-diazanonane-1,9-diamine], for which the “optimal lipid:siRNA ratio to completely retard the siRNA” value in data set [1] worked out at 2.5. In addition, the “down-regulation of the apoB mRNA in vivo” value in data set [2] (5 mg siRNA/kg animal) and in data set [2] (15 mg siRNA/kg animal) was “did not mediate down-regulation” each time.
Take `CCCCCCCCCCCCCCCCCCN(CCCCCCCCCCCCCCCCCC)C(=O)CNC(=O)CCNCCCNCCN` [DODAG, N′,N′-dioctadecyl-N-4,8-diaza-10-aminodecanoylglycine amide]: the “N/P ratio at which the movement of siRNA was entirely retarded” value in data set [1] (agarose gel, assuming cationic charge of 1.5 per DODAG) was determined as 1.8. The “optimal lipid:siRNA ratio to completely retard the siRNA” value in data set [1] stood at 3. The “specific down-regulation of CyPB in vitro” value in data set [3] is “unsuccessful”. The “down-regulation of the apoB mRNA in vivo” value in data set [2] (5 mg siRNA/kg animal) is greater than 60%.
